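Values below derive from 48-hour exposures of cells grown in 96-well plates, with endpoints linearly interpolated between the two concentrations bracketing the appropriate inhibition level. GI50 is the concentration that inhibits growth by half. TGI: total growth inhibition.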

This passage reports GI50 and TGI results from PubChem BioAssay (NCI).

Among the test systems are HOP-92 NSCLC; NCI-H522 lung; PC-3 prostate; SF-268 CNS; SK-MEL-2 melanoma; SK-MEL-5 melanoma; SNB-19 CNS; SR leukemia; TK-10 renal; MALME-3M melanoma.
Common to all, as to assay: inhibition of tumour cell growth, NCI panel, 48 h

For `CC(=O)N1N=C(c2ccc(Nc3ccnc4cc(Cl)ccc34)cc2)CC1c1ccc(Cl)cc1` (centres undefined), the GI50 in the test with HOP-92 NSCLC was greater than 100 µM; with NCI-H522 lung it was 5.05 µM; in the test with PC-3 prostate, 3.02 µM; in the test on SF-268 CNS it was 9.1 µM; with SK-MEL-2 melanoma, greater than 100 µM; in the test with SK-MEL-5 melanoma it was 2.2 µM. The GI50 with SNB-19 CNS is greater than 100 µM; with SR leukemia, 0.612 µM; in the test on TK-10 renal it was greater than 100 µM. The TGI in the test on HOP-92 NSCLC is greater than 100 µM; with NCI-H522 lung, greater than 100 µM; with PC-3 prostate, greater than 100 µM; in the test with SF-268 CNS, greater than 100 µM; in the test with SK-MEL-2 melanoma, greater than 100 µM; in the test on SK-MEL-5 melanoma, 16 µM. The TGI in the test on SNB-19 CNS, in the test with SR leukemia and with TK-10 renal was greater than 100 µM in each case.
In the case of `ON(Cc1ccccc1)C(=S)c1ccccc1`, the TGI with HOP-92 NSCLC was greater than 100 µM; in the test with MALME-3M melanoma it was greater than 100 µM; in the test with NCI-H522 lung, 28 µM; in the test on PC-3 prostate, greater than 100 µM; in the test on SF-268 CNS it was greater than 100 µM; in the test on SK-MEL-2 melanoma, greater than 100 µM. For the same compound, the TGI with SK-MEL-5 melanoma, in the test with SNB-19 CNS and in the test on TK-10 renal was greater than 100 µM throughout.
For `S=C(Nc1ccc(N=Nc2ccccc2)cc1)SCc1ccccc1`, the TGI was found to be 30.4 µM with HOP-92 NSCLC; 22.9 µM in the test with MALME-3M melanoma; 36.2 µM in the test with NCI-H522 lung; 30.6 µM with PC-3 prostate; 36.6 µM with SF-268 CNS; 50 µM with SK-MEL-2 melanoma. The TGI in the test on SK-MEL-5 melanoma is 29.6 µM; with SNB-19 CNS, 39.4 µM; with TK-10 renal, 25.5 µM.
For the compound `CN(COC(=O)c1ccccc1)c1nc(N(C)COC(=O)c2ccccc2)nc(N(C)COC(=O)c2ccccc2)n1`, the TGI was 63.1 µM in the test with HOP-92 NSCLC; greater than 100 µM in the test with MALME-3M melanoma; greater than 100 µM in the test on NCI-H522 lung; greater than 100 µM in the test on PC-3 prostate; greater than 88.1 µM with SF-268 CNS; greater than 100 µM in the test with SK-MEL-5 melanoma. Further, the TGI is 51.7 µM in the test on SNB-19 CNS, greater than 100 µM with SR leukemia and 59.2 µM in the test with TK-10 renal.
As to `Cc1cc(S(=O)(=O)/N=C/N(C)C)c(SC(=O)c2ccc(Cl)cc2)cc1Cl`, the GI50 is 28.9 µM with HOP-92 NSCLC; 47.9 µM in the test with NCI-H522 lung; 27.6 µM in the test with PC-3 prostate; 50.8 µM in the test on SF-268 CNS; 45.8 µM with SK-MEL-2 melanoma; 10.8 µM with SK-MEL-5 melanoma. The GI50 was 53.8 µM in the test on SNB-19 CNS, 44.6 µM in the test with SR leukemia and 28.2 µM in the test on TK-10 renal. In addition, the TGI was greater than 100 µM in the test with HOP-92 NSCLC; greater than 100 µM in the test on NCI-H522 lung; 90.8 µM in the test on PC-3 prostate; greater than 100 µM with SF-268 CNS; greater than 100 µM in the test with SK-MEL-2 melanoma; 36.5 µM in the test on SK-MEL-5 melanoma. The TGI in the test with SNB-19 CNS is greater than 100 µM; in the test on SR leukemia, greater than 100 µM; in the test with TK-10 renal it was 80.7 µM.
With `COC(=O)C(=CNC(N)=O)C(=O)OC`, the TGI in the test on HOP-92 NSCLC, in the test with NCI-H522 lung, in the test with PC-3 prostate, in the test on SF-268 CNS, in the test with SK-MEL-2 melanoma and in the test with SK-MEL-5 melanoma was greater than 100 µM throughout. For the same compound, the TGI in the test with SNB-19 CNS, with SR leukemia and with TK-10 renal was greater than 100 µM throughout.
`CC(=O)c1c(CN(C)c2ccccc2)n([O-])c2ccccc2[n+]1=O`: the GI50 was 23.9 µM with MALME-3M melanoma; 25.6 µM in the test on NCI-H522 lung; 11.7 µM in the test on PC-3 prostate; 24.1 µM in the test on SF-268 CNS; greater than 100 µM with SK-MEL-2 melanoma; 16 µM in the test with SK-MEL-5 melanoma. Besides, the figures for the GI50 in the test with SNB-19 CNS, with SR leukemia and in the test with TK-10 renal were 17.5 µM, 5.79 µM and 45.8 µM, respectively. Further, the TGI is 87.2 µM in the test on MALME-3M melanoma; 69.9 µM in the test on NCI-H522 lung; 44.3 µM in the test with PC-3 prostate; 79.9 µM with SF-268 CNS; greater than 100 µM in the test with SK-MEL-2 melanoma; 42.4 µM in the test with SK-MEL-5 melanoma. Moreover, the TGI with SNB-19 CNS was 57.1 µM; with SR leukemia, greater than 100 µM; with TK-10 renal, greater than 100 µM.
In the case of `Nc1nc(N)c(C=Nc2ccc(Br)cc2)c(Nc2ccc(Br)cc2)n1`, the GI50 is 17.8 µM in the test with MALME-3M melanoma; 8.2 µM with NCI-H522 lung; 8.34 µM with PC-3 prostate; 8.16 µM with SF-268 CNS; 10.2 µM in the test on SK-MEL-2 melanoma; 13.5 µM with SK-MEL-5 melanoma. In addition, the figures for the GI50 in the test with SNB-19 CNS, in the test on SR leukemia and in the test on TK-10 renal were 12.4 µM, 2.61 µM and 13 µM, respectively. In addition, the TGI with MALME-3M melanoma stood at 39.7 µM; in the test with NCI-H522 lung, 33.2 µM; in the test with PC-3 prostate, 26.4 µM; in the test on SF-268 CNS it was 27.1 µM; with SK-MEL-2 melanoma, 23 µM; in the test on SK-MEL-5 melanoma it was 26.3 µM. Moreover, the TGI in the test on SNB-19 CNS worked out at 32.4 µM; with SR leukemia, 10.2 µM; with TK-10 renal it was 37.6 µM.
For `CCOC(=O)c1c(C)n(Cc2ccccc2)c2c1cc(O)c1[nH]c(Cc3ccccc3)nc12`, the GI50 with HOP-92 NSCLC was 20.2 µM; with MALME-3M melanoma, 9.93 µM; in the test on PC-3 prostate, 7.88 µM; in the test with SF-268 CNS, 13.8 µM; with SK-MEL-2 melanoma, 26.7 µM; in the test with SK-MEL-5 melanoma, 9.89 µM. The GI50 in the test with SNB-19 CNS is 23.6 µM; with SR leukemia, 3.23 µM; in the test with TK-10 renal, 1.5 µM. The TGI is 68.8 µM with HOP-92 NSCLC; 58 µM in the test with MALME-3M melanoma; greater than 100 µM in the test on PC-3 prostate; greater than 100 µM in the test with SF-268 CNS; greater than 100 µM in the test with SK-MEL-2 melanoma; 39.1 µM in the test with SK-MEL-5 melanoma. The TGI with SNB-19 CNS was greater than 67.9 µM; in the test on SR leukemia it was 25.3 µM; in the test on TK-10 renal, 54.5 µM.
Turning to `COc1cccc(/C=N/NC(=S)NC2CC3CCC2C3)c1O` (centres undefined), the GI50 with MALME-3M melanoma was 5.65 µM; in the test on NCI-H522 lung it was 11.5 µM; in the test with PC-3 prostate, 8.5 µM; in the test on SF-268 CNS it was 5.84 µM; in the test with SK-MEL-2 melanoma, 18.2 µM; in the test on SK-MEL-5 melanoma it was 13.9 µM. Also, the GI50 was 14.6 µM in the test with SNB-19 CNS, 3.08 µM in the test with SR leukemia and 16.4 µM with TK-10 renal. Besides, the TGI in the test with MALME-3M melanoma worked out at 20 µM; in the test with NCI-H522 lung it was 37.6 µM; in the test with PC-3 prostate, 27 µM; in the test on SF-268 CNS, 21.5 µM; with SK-MEL-2 melanoma, 34.9 µM; in the test with SK-MEL-5 melanoma it was 77.4 µM. The results for the TGI with SNB-19 CNS, in the test with SR leukemia and in the test on TK-10 renal were 35.9 µM, 10.8 µM and 31.5 µM, respectively.
